System: Trypanosoma cruzi
Experiment: Trypanocidal effect on bloodstream trypomastigotes of Trypanosoma cruzi; ED50/24h
Type: functional

SMILES	ED50
CN(C)c1ccc(C(=C2C=CC(=[N+](C)C)C=C2)c2ccc(N(C)C)cc2)cc1	536 µM
CC1(C)CCc2c(c3ccccc3c3nc4cc(Nc5ccccc5)/c(=N/c5ccccc5)cc-4n(-c4ccccc4)c23)O1	61.3 µM

From ChEMBL document CHEMBL1135751, “A trypanocidal phenazine derived from beta-lapachone” (2002)
